Values after ≈ are worked out from the molar mass of the structure shown. Read-outs that look alike come from different tables or passages of the source.
Legend:
Assay type in all cases: physicochemical
Solubility in water = settings: thermodynamic from solid, 25° C., maximum 10 mg/ml of parent free form
Procedure: This was measured by suspending enough compound in 0.25 ml of solvent (water) to give a maximum final concentration of 10 mg/ml of the parent free form of the compound. The suspension was equilibrated at 25° C. for 24 hrs followed by a pH check and filtration through a glass fibre C 96 well plate. The filtrate is then diluted down 101×. Quantitation was by HPLC with reference to a standard dissolved in DMSO at approx 0.1 mg/ml. Different volumes of the standard, diluted and undiluted tests were injected. The solubility was calculated by integration of the peak area found at the same retention time as the peak maximum in the standard injection. If there is sufficient solid in the filter plate the XRPD is normally checked for phase changes, hydrate formation, amorphization, crystallization etc.

[1] = pKa determination (potentiometric titration, Sirius GlpKa); settings: MeOH:H2O mixtures, extrapolated to 0% co-solvent, free base
Procedure: Two basic centres of the free base of the compound were measured for pKa. […] The pKa of the basic centre of the imidazole ring was measured to be 4.53.
pka determination was performed on a Sirius GlpKa instrument with D-PAS attachment. Measurements were made by potentiometric titration in MeOH:H2O mixtures at 25° C. The titration media was ionic strength adjusted with 0.15M KCl. The values found in the MeOH:H2O mixtures were extrapolated to 0% co-solvent via a Yasuda-Shedlovsky extrapolation.

[2] = Solid-state stability study of compound of formula (I) (appearance, HPLC content); settings: 34 days
Procedure: Method/Technique. 2 mg samples of compound of formula (I), accurately weighed, were placed in 4-mL clear glass screw-cap vials. Samples were tested at initial and after 34 days stored at 5° C./Ambient Relative Humidity (AMRH) Closed, 30° C./60% RH Closed, 40° C./75% RH Open and 60° C./AMRH Closed.
Samples were inspected visually for appearance. Compound of formula (I) content values were determined by the HPLC method in Table 1. The % weight/weight (% w/w) values were measured relative to standard samples of compound of formula (I) Batch U12438/79/1. The % area values were obtained by dividing the compound of formula (I) peak area by the total peak area.

[3] = Solubility in organic solvents; settings: organic solvent or mixture, read-out: Min solvent required (solubility)
Procedure: The solubility of the compound of formula (I) was determined in a wide range of organic solvents.

COC(=O)CC[C@@H]1N=C(c2ccccn2)c2cc(Br)ccc2-n2c(C)cnc21 [LJC-039-034-1]
solubility at 24 h (Solubility in water): 7.8 mg/mL (≈ 17.8 mM)

COC(=O)CC[C@@H]1N=C(c2ccccn2)c2cc(Br)ccc2-n2c(C)cnc21 [compound of formula (I), Methyl 3-[(4S)-8-bromo-1-methyl-6-(2-pyridinyl)-4H-imidazol[1,2-a][1,4]benzodiazepin-4-yl]propanoate]
pKa ([1]; basic centre of the imidazole ring): 4.53 | pKa ([1]; basic centre of the pyridine ring): 1.99 | Appearance ([2]; 40 C./75% RH Open): Deliquesced yellow mass on bottom | Appearance ([2]; 60 C./AMRH Closed): Deliquesced dark yellow to orange | solubility ([3]; acetone): 214 mg/mL | solubility ([3]; acetonitrile): 362 mg/mL | solubility ([3]; ethanol): 324 mg/mL | solubility ([3]; ethyl acetate): 218 mg/mL | solubility ([3]; methanol): 446 mg/mL | solubility ([3]; propan-2-ol): 454 mg/mL | solubility ([3]; tetrahydrofuran): 311 mg/mL | solubility ([3]; toluene): 460 mg/mL

Source: patent US8642588B2, “Short-acting benzodiazepine salts and their polymorphic forms” (priority 2006, dated 2014)
